Data taken from US20070123518A1, “Product designed to protentiate the therapeutic effects and to enhance the action of medicinal preparations” (priority 2003, published 2007).

Tests used:
Assay type in all cases: in vivo
[1] = test system: patients suffering from generalized anxiety syndrome; experiment: Hamilton's scale of anxiety in patients with generalized anxiety syndrome, diazepam
Source text: Benzodiazepines represent reference medications for the treatment of anxious states. However, application of benzodiazepines is frequently associated with adverse effects that require dose reduction to minimal effective doses. Investigation of impacts induced by ultra-low doses of activated form of diazepam on the anxiolytic activity of therapeutic doses of diazepam was accomplished in 20 patients suffering from generalized anxiety syndrome characterized with the anxiety level consistent with at least 20 grades of Hamilton's scale of anxiety. Patients received tablets containing activated form of diazepam in ultra-low doses (homeopathic dilution C200, equivalent concentration—10^−400M mass concentration)—1 tablet 4 times a day for 14 days. Thereafter, beginning from 15th to 30th day of therapy patients were took per oral diazepam at the dose of 2 mg qid day (daily dose—8 mg) followed by administration of ultra-low doses of activated form of the very medication 4 tablets per day for 7 days and by combined treatment implicating simultaneous intake of activated form (4 tablets a day) and diazepam (8 mg per day) for 14 days. Anxiety level was evaluated by means of Hamilton's scale at baseline and after each stage of therapy.

[2] = test system: rats in conflict situation; experiment: Conflict situation model of Vogel, ethanol in drinking bowl; details: solution in the drinking bowl, mixture 10:1 volumetric ratio
Experimental: Anxiolytic effect was evaluated in accordance with the number of punished water intakes.

[3] = test system: Rat model of adjuvant arthritis; experiment: Rat model of adjuvant arthritis (complete Freund's adjuvant), prednisone; details: rats, into the stomach; prednisone 2 mg/kg; activated form D24+D60 2.5mg/kg; combined 10:1
Experimental: Rat model of adjuvant arthritis induced by single subplantar injection of 100 μl of complete Freund's adjuvant was applied for evaluation of anti-inflammatory activity of glucocorticosteroid agent—prednisone in following treatment choices: a) therapeutic dose, b) activated (potentiated) form (ultra-low dose), c) combined treatment with therapeutic dose and activated form. Soon after the injection of complete Freund's adjuvant animals (10 rats per group) received prednisone in therapeutic dose, in activated form or their combination (control—distilled water)—for 14 days.
2 mg/kg prednisone (water solution) was given into the stomach; activated form of prednisone in ultra-low doses—mixture of homeopathic dilutions D24+D60 was injected in the form of water solution at the dose of 2.5mg/kg of animal's body weight into stomach; both forms mixed at 10:1 ratio were injected at one time during combined treatment.
Severity of inflammatory damage to each extremity (0 to 4) and overall index of arthritis severity (0 to 16) were assessed once per 1-2 days. Functional disturbances, erythema, edema and deformation of extremities were taken into account. Anti-inflammatory efficacy of the medications was evaluated in accordance with reduction of overall index of arthritis severity by the 2-3rd and 14th days of treatment.

[4] = test system: patients suffering from definite rheumatoid arthritis (oligoarthritis); experiment: Clinical trial in rheumatoid arthritis (oligoarthritis), duration of effect of hydrocortisone injections; details: 20 patients, hydrocortisone 20-25 mg peri- or intra-articular; activated form per os over 8 weeks
Experimental: Twenty patients suffering from definite rheumatoid arthritis (oligoarthritis) necessitating peri- or intra-articular injections of hydrocortisone were included in the clinical trial of influences of activated form (ultra-low doses) of anti-inflammatory agent—hydrocortisone on the therapeutic activity of hydrocortisone in relation with arthritis manifestations. At baseline all patients required injections of 20-25 mg hydrocortisone 2-3 times a week (up on request). Over 8 weeks patients received activated form of hydrocortisone in ultra-low doses per orally—1 tablet for dissolution in the mouth (activated form—mixture of homeopathic dilutions C12+C30+C200, equivalent concentration 10^−24M mass concentration) together with injections. Impacts of activated form were evaluated in accordance with duration of periods, when patients were independent from hydrocortisone injections.

[5] = test system: rats in conflict situation; experiment: Conflict situation model of Vogel, phenazepam
Experimental: Anxiolytic activity of phenazepam was studied by conflict situation model of Vogel J., 1971 in rats. Phenazepam was applied in 1) therapeutic dose, 2) activated form or 3) combination of therapeutic dose of phenazepam and activated form of the same medication. Therapeutic doses of Phenazepam (1 mg/kg) were injected intraperitoneally; activated form containing the mixture of homeopathic dilutions C12+C30+C200, was given at 2.5 ml/kg of animal's body weight intraperitoneally; combined treatment included simultaneous injections of both forms in two different syringes. The effect was evaluated after 20 minutes following to medication injections by the quantity of punished water intakes.

Structure (SMILES): CN1C(=O)CN=C(c2ccccc2)c2cc(Cl)ccc21 [diazepam]
- Overall level of anxiety in accordance with Hamilton's scale ([1]; 20 patients, after the stage of therapy: activated form 2 weeks, then diazepam 8 mg/day, last stage combined 14 days): 16.2 ± 2.5 grades
- improvement versus baseline ([1]; Hamilton's scale, after the stage of therapy): 26%
- anxiolytic effect (in words) ([1]; dynamic changes in anxiety level): does not yield achievement of pronounced decline of anxiety

Structure (SMILES): CCO [Ethanol 10%, ethanol]
- Number of punished water intakes [2]: 317.2 ± 41.0

Structure (SMILES): C[C@]12C=CC(=O)C=C1CC[C@@H]1[C@@H]2C(=O)C[C@@]2(C)[C@H]1CC[C@]2(O)C(=O)CO [Prednisone, prednisone]
- Arthritis severity index by 14th day of therapy [3]: 5.4 ± 1.7 grades
- Arthritis severity index by the 2-3rd day of therapy [3]: 2.1 ± 0.4 grades

Structure (SMILES): C[C@]12CCC(=O)C=C1CC[C@@H]1[C@@H]2[C@@H](O)C[C@@]2(C)[C@H]1CC[C@]2(O)C(=O)CO [Hydrocortisone, hydrocortisone]
- Duration effects of injections (time lag between injections "upon request") [4]: 2.8 ± 0.3 days

Structure (SMILES): O=C1CN=C(c2ccccc2Cl)c2cc(Br)ccc2N1 [Phenazepam, phenazepam]
- Number of punished water intakes ([5]; rats, intraperitoneally, 20 minutes after injection, phenazepam 1 mg/kg, activated form 2.5 ml/kg): 415.67 ± 113.96
- anxiolytic activity (in words) ([5]; versus control): possesses anxiolytic activity
